Read-outs that look alike come from different tables or passages of the source.
Assays:
[1] = Oral pharmacokinetics of naratriptan in rats, alone or combined with an absorption enhancer carrier; assay type: in vivo, Sprague-Dawley rats; conditions: Nar 10 mg/kg, carrier 200 mg/kg
Method: In the present invention, the delivery system is the pharmaceutical formulations which may be in the form of a liquid or solid. Liquid formulations may be water-based. The absorption enhancer was dissolved in deionized water. 10 N NaOH solution was used to help dissolving acid form carriers. HCl was added to lower pH of the absorption enhancer stock solution if the pH was higher than 7.4. Naratriptan powder was added to the absorption enhancer solution 5 minutes before dosing. The final concentration of drug was 10 mg/ml, and the final concentration of carrier was 200 mg/ml for the study.
Naratriptan is also designated Nar. Naratriptan was administered alone to rates orally as a control. For oral dosing, single solutions were administrated at time 0, in the following manner: (a) each absorption enhancer carrier (200 mg/kg) in combination with Nar (10 mg/kg) was administered orally to rats; and (b) Nar (10 mg/kg) alone was administered orally to rats. Blood samples were collected by retro-orbital bleed under CO2 anesthesia pre-dosing (0 minute), and 5, 15, 30, 40, 50, 60, 120 and 240 minutes after dosing. […] Both, the Nar/2-HPOD and Nar/2-HPHM combination took approximately ½ the time of Naratriptan alone. […] Also the mean Cmax value of the Nar/4-PPED combination was approximately 2-fold higher compared to that obtained following Naratriptan alone.

[2] = cited from earlier work
[3] = Sprague-Dawley, rat, naratriptan in plasma, fasted male rats, single oral dose, n=5

In the case of `CNS(=O)(=O)CCc1ccc2[nH]cc(C3CCN(C)CC3)c2c1` [Naratriptan], the “time of mean peak Naratriptan plasma concentration post-dose” value ([1]; Example 1, rats, oral) is reported as 27 min, the Cmax [1, 3] is reported as 1050 ng/mL and the Tmax [1, 3] is reported as 27 min. The “AU Clast” value ([1]; naratriptan in plasma, fasted male rats, single oral dose, n=5) was 62851 ng·min/mL, the “time to peak concentrations” value ([2]; 2.5 mg tablet orally) was 2 to 3 h and the Tmax ([2]; during a migraine attack) was 180 to 240 min. The oral bioavailability ([2]; naratriptan tablets) was “about 70%”.

— US8148578B2, “Fast acting naratriptan composition” (Emisphere Technologies Inc., priority 2008, dated 2012)
